Experimental data taken from US11865176B2, “Compositions and methods of modulating anti-tumor immunity” (Dana-Farber Cancer Institute, Inc., priority 2016, dated 2024).

Columns and labels:
[1] = test system: CDK4/6; assay: Kinome profiling (KINOMEscan), selectivity; type: binding; conditions: compared with abemaciclib
Description: Palbociclib and abemaciclib were profiled by DiscoveRx using KINOMEscan (55). Briefly, the two compounds were tested at 100 nM and 1000 nM. Targeted kinases were visualized using the TREEspot™ compound profile visualization tool. Z'LYTE™ kinase assays were conducted for GSK3α and GSK3β at Life Technologies using Km ATP concentrations.

[2] = test system: total splenocytes; assay: IFNγ production (ELISA) by splenocytes of mice treated in vivo; design: species or system mouse; conditions: tumor-bearing mice, 100 mg/kg IP
Description: FIG. 11. Tumor antigen experienced T cells are more sensitive to CDK4/6 inhibition. A. Naive C57BL/6 mice were treated with trilaciclib (100 mg/kg, IP) or vehicle for three days. Two and seven days after the final treatment, splenocytes were isolated and stimulated with α-CD3/CD28 antibodies for 72 hours to measure IFNγ production by ELISA. B. C57BL/6 mice were implanted with B16F10 tumor cells. Seven days post implantation mice were treated with trilaciclib (100 mg/kg, IP) or vehicle for 5 days. Five days post final treatment splenocytes were isolated and stimulated with α-CD3/CD28 antibodies for IFNγ production by ELISA. C. IL-2 production from Tconv (CD4^+CD25^−) cells after trilaciclib treatment. Tconv cells were isolated from either naive or tumor bearing (TMB) mice and treated with trilaciclib at indicated concentrations, in the presence of CD3 and CD28 antibodies. IL-2 production was determined 3 days after the treatment as percentage. (n=3) IFNγ production in CD8^+ T cells alone from naive or TMB mice after treatment with trilaciclib, as shown by percentage (D) or fold change (E). (n=3) F. Increased IFNγ production in CD8+ T cells by trilaciclib in the presence of Tregs. […] IFNγ production was determined 3 days after the treatment as shown as percentage. […]

[3] = test system: MC38; assay: MC38 syngeneic colon adenocarcinoma model; type: in vivo, mouse
Description: For syngeneic models, MC38 and CT26 cells were injected into 6-8 week C57BL/6 or Balb/c female mice subcutaneously, respectively. Vehicle control, CDK4/6 inhibitors (trilaciclib or palbociclib) were treated alone or together with PD-1 antibody starting at the indicated time point, using an intermittent dosing schedule of 3 days on, 4 days off until experimental endpoint. PD-1 antibody was administered 3 times a week (Monday, Wednesday and Friday) at 200 μg/mouse through I.P. injection.

[4] = test system: primary human CD4+ T cells; assay: IL2 ELISA, primary human CD4+ T cells; type: cell-based; conditions: α-CD3/CD28 and recombinant PD-L1 or control IgG; 100 nM (FIG. 1C)
Description: PD-1-overexpressing Jurkat cells as previously published (23) were stimulated with Dynabeads conjugated to α-CD3 (UCHT1), α-CD28 (28.2), and α-PD-1 (clone EH12 from Gordon Freeman) or control IgG at a 4:1 bead:cell ratio in the presence of 1 μM CDK4/6 inhibitor for 18 h. For primary human T cells, normal donor human blood was obtained through DFCI IRB Protocol 04-430. PBMC were isolated using a Ficoll-Paque density gradient, and purified populations of CD4+ T lymphocytes were obtained through a negative magnetic selection kit according to manufacturer's instructions (Miltenyi). […] IL-2 levels in the supernatant were analyzed by AlphaLISA (Perkin Elmers) according to the manufacturer's protocol.

[5] = test system: splenic T cells (Tconv, CD8+, Treg); assay: Cell co-culture and cytokine production ex vivo; type: cell-based, mouse
Description: Naïve or KP tumor bearing C57BL/6 mice were sacrificed and total splenocytes were harvested. Spleens were digested with collagenase D (Roche) and Dnase I (Roche) at 37° C. for 30 min, followed by 1×ACS lysis buffer (Biolegend) incubation to lyse red blood cells. The collected total splenocytes were stained with the fluorochome-conjugated cell surface markers CD3, CD4, CD8 and CD25 to isolate different T cell subpopulations, including conventional T cell Tconv (CD3+CD4+[…]), Treg (CD3+CD4+CD25+), and CD8+(CD3+CD8+) using BD FACSAria II SORP cell sorter (BD Bioscience). DAPI (4′,6-diamidino-2-phenylindole) staining was used to exclude dead cells. Sorted cells were cultured in 96-well plates pre-coated with CD3 antibody (eBioscience) and treated with trilaciclib in the presence of CD28 (eBioscience). Cells were collected 3 days after culturing and cytokine production of IFNγ and IL-2 was determined by intracellular staining and analyzed on BD LSRFortessa (BD Bioscience).

[6] = test system: patient-derived organotypic tumor spheroids (PDOTS); assay: Cytokine profiling of patient-derived organotypic tumor spheroids (PDOTS) in 3D microfluidic culture; type: cell-based, human; conditions: 100 nM; day 1 and day 3
Description: Experiments were performed as described (28). Briefly, fresh tumor specimens from human patients were received in media (DMEM) on ice and minced in 10 cm dishes (on ice) in a sterile field. S2 fractions (40-100 μm) were used for ex vivo culture as previously described (28). An aliquot of the S2 fraction was pelleted and re-suspended in type I rat-tail collagen (Corning, Corning, NY) and the spheroid-collagen mixture was then injected into the center gel region of the 3D microfluidic culture device. After 30 minutes at 37° C., collagen hydrogels containing PDOTS/MDOTS were hydrated with media with indicated treatments. MDOTS were treated with IgG isotype control (10 μg/mL, clone 2A3) or rat-α-mouse anti-PD-1 (10 μg/ml, clone RMP1-14, BioXCell). […]
Mouse lung broncho alveolar lavage (BAL) was performed by intracheal injection of 2 ml of sterile PBS followed by collection by aspiration. Cytokines were measured using 19-plex mouse magnetic Luminex kit (R&D systems), Mouse Cytokine 23-plex Assay (Bio-Rad) or Human Cytokine 40-plex Assay (Bio-Rad) and measured on Bio-Plex 200 system (Bio-Rad). […] Fold changes relative to the control were calculated and plotted as log 2FC. Lower and upper limits of quantitation (LLOQ/ULOQ) were derived from standard curves for cytokines above or below detection. […]

**Q.** Which results are given for `CN1CCN(c2ccc(Nc3ncc4cc5n(c4n3)C3(CCCCC3)CNC5=O)nc2)CC1` [trilaciclib]?
**A.** selectivity for CDK4/6 [1]: significantly more selective for CDK4/6; IFNγ secretion of total splenocytes [2]: increased IFNγ secretion; increase in CD4+ IL-2 production ([3]; TILs, trilaciclib added to PD-1 blockade, day 17): ~2 fold; tumor growth ([3]; intermittent trilaciclib (100 mg/kg, 3 days on, 4 days off) added to PD-1 blockade): nearly eliminated tumor growth; increase in levels of IFNγ in CD8+ TILs ([3]; trilaciclib added to PD-1 blockade, day 17): ~10 fold; IL-2 secretion [4]: enhanced IL-2 secretion; IL-2 production ([5]; Tconv cells treated ex vivo, 3 days, naïve vs tumor-bearing mice): increased IL-2 production only in cells from tumor-bearing mice; increase of IFNγ production ([5]; splenic CD8+ T cells from tumor-bearing mice co-cultured with Tregs): ~10 fold; levels of Th1 cytokines (CXCL9, CXCL10, IFNγ, IL-16, CXCL16) [6]: increased levels of Th1 cytokines
